Results taken from US6849632B2, “Heteroaryl alkyl piperazine derivatives” (CV Therapeutics, Inc., priority 2000, dated 2005).
“And” between values parts separate entries of the source, which are not always exact repeats. Equal values may be shown once.

test system: mitochondrial fatty acid oxidation using palmitoyl CoA as substrate; experiment: Palmitoyl CoA oxidation in isolated rat heart mitochondria; type: biochemical; conditions: 50 μm compound, 15 min at 30° C.
Experimental: Rat heart mitochondria were isolated by the method of Nedergard and Cannon (Methods in Enzymol. 55, 3, 1979). Palmitoyl CoA oxidation—The Palmityl CoA oxidation was carried out in a total volume of 100 micro liters containing the following agents: 110 mM KCl, 33 mM Tris buffer at pH 8, 2 mM KPi, 2 mM MgCl2, 0.1 mM EDTA, 14.7 microM defatted BSA, 0.5 mM malic acid, 13 mM carnitine, 1 mM ADP, 52 micrograms of mitochondrial protein, and 16 microM 1-C14 palmitoyl CoA (Sp. Activity 60 mCi/mmole; 20 microCi/ml, using 5 microliters per assay). The compounds of this invention were added in a DMSO solution at the following concentrations: 100 microM, and 50 microM. In each assay, a DMSO control was used. After 15 min at 30° C., the enzymatic reaction was centrifuged (20,000 g for 1 min), and 70 microliters of the supernatant was added to an activated reverse phase silicic acid column (approximately 0.5 ml of silicic acid). The column was eluted with 2 ml of water, and 0.5 ml of the eluent was used for scintillation counting to determine the amount of C^14 trapped as C^14 bicarbonate ion.

Compound | Inhibition of mitochondrial fatty acid oxidation using palmitoyl CoA as substrate - % of Control, 50 μm (%)
Cc1cccc(C)c1NC(=O)CN1CCN(CC(O)COc2ccc3oc(-c4cccc(C(F)(F)F)c4)nc3c2)CC1 (stereo not shown) [Compound 7, N-(2,6-dimethyl-phenyl)-2-(4-{2-hydroxy-3-[2-(3-trifluoromethylphenyl)benzoxazol-5-yloxy]-propyl}-piperazin-1-yl)acetamide] | 77
Cc1cccc(C)c1NC(=O)CN1CCN(CC(O)COc2ccc3oc(-c4ccccc4)nc3c2)CC1 (stereo not shown) [Compound 60, N-(2,6-dimethylphenyl)-2-{4-[2-hydroxy-3-(2-phenyl-benzoxazol-5-yloxy)-propyl)-piperazin-1-yl}acetamide] | 61
Cc1cccc(C)c1NC(=O)CN1CCN(CC(O)COc2cccc3nc(-c4ccccc4)sc23)CC1 (stereo not shown) [Compound 62] | 62
Cc1cccc(C)c1NC(=O)CN1CCN(CC(O)COc2ccc3oc(-c4ccc(C(F)(F)F)cc4)nc3c2)CC1 (stereo not shown) [Compound 68, N-(2,6-dimethylphenyl)-2-(4-{2-hydroxy-3-[2-(4-trifluoromethyl-phenyl)benzoxazol-5-yloxy]-propyl}-piperazin-1-yl)acetamide] | 68

same assay, conditions: 100 μm compound, 15 min at 30° C.

Compound | Inhibition of mitochondrial fatty acid oxidation using palmitoyl CoA as substrate - % of Control, 100 μm (%)
Cc1cccc(C)c1NC(=O)CN1CCN(CC(O)CNc2nc3ccccc3s2)CC1 (stereo not shown) [Compound 39, 2-{4-[3-(benzothiazol-2-ylamino)-2-hydroxypropyl]piperazinyl}-N-(2,6-dimethylphenyl)acetamide] | 27
Cc1nc2ccc(OCC(O)CN3CCN(CC(=O)Nc4c(C)cccc4C)CC3)cc2s1 (stereo not shown) [Compound 49, N-(2,6-dimethylphenyl)-2-{4-[2-hydroxy-3-(2-methyl-benzothiazol-6-yloxy)-propyl]-piperazin-1-yl}aceamide] | 3
Cc1nc2cc(OCC(O)CN3CCN(CC(=O)Nc4ccc(O)cc4)CC3)ccc2s1 (stereo not shown) [Compound 54, 2-{4-[2-hydroxy-3-(2-methyl-benzothiazol-5-yloxy)-propyl]-piperazin-1-yl}-N-(4-hydroxy-phenyl)acetamide] | 81
Cc1nc2cc(OCC(O)CN3CCN(CC(=O)Nc4c(C)cccc4C)C(=O)C3)ccc2s1 (stereo not shown) [Compound 64, N-(2,6-dimethylphenyl)-2-{4-[2-hydroxy-3-(2-methyl-benzothiazol-5-yloxy)-propyl]-2-oxo-piperazin-1-yl}acetamide] | 41
Cc1cccc(C)c1NC(=O)CN1CCN(CC(O)COc2cccnc2)CC1 (stereo not shown) [Compound 72, N-(2,6-dimethylphenyl)-2-{4-[2-hydroxy-3-(pyridin-3-yloxy)-propyl]-piperazin-1-yl}acetamide] | 8
Cc1cccc(C)c1NC(=O)CN1CCN(CC(O)CNc2nc3ccccc3o2)CC1 (stereo not shown) [Compound 82, 2-{4-[3-(benzoxazol-2-ylamino)-2-hydroxypropyl]piperazinyl}-N-(2,6-dimethylphenyl)acetamide] | 22

same assay, conditions: Table 1, read-out: IC50 (μm), inhibition of mitochondrial fatty acid oxidation using palmitoyl CoA as substrate

IC50 [µM] | Compound
~8 | Cc1nc2cc(OCC(O)CN3CCN(CC(=O)Nc4ccc(O)cc4)CC3)ccc2s1 (stereo not shown) [Compound 54, 2-{4-[2-hydroxy-3-(2-methyl-benzothiazol-5-yloxy)-propyl]-piperazin-1-yl}-N-(4-hydroxy-phenyl)acetamide]

same assay, conditions: Table IA, read-out: Effect on Palmitoyl CoA Oxidation (IC50)

Compound | IC50
2-(4-{(2S)-3-[2-(4-chlorophenyl)benzoxazol-5-yloxy]-2-hydroxypropyl}piperazinyl)-N-[2-(hydroxymethyl)-6-methylphenyl]acetamide | 12 µM and 20 µM
2-(4-{(2S)-3-[2-(4-chlorophenyl)benzoxazol-5-yloxy]-2-hydroxypropyl}piperazinyl)-N-[4-(trifluoromethyl)phenyl]acetamide | 12.9 µM
2-((3S)-4-{(2S)-3-[2-(2-chlorophenyl)benzoxazol-5-yloxy]-2-hydroxy-propyl}-3-methylpiperazinyl)-N-(2,6-dimethylphenyl)acetamide | 19 µM
2-((3S)-4-{(2S)-3-[2-(3-fluorophenyl)benzoxazol-5-yloxy]-2-hydroxy-propyl}-3-methylpiperazinyl)-N-(2,6-dimethylphenyl)acetamide | 16 µM
Cc1cccc(C)c1NC(=O)CN1CCN(C[C@H](O)COc2ccc3oc(-c4cccc(C(F)(F)F)c4)nc3c2)CC1 [2-[4-((2S)-2-hydroxy-3-{2-[3-(trifluoromethyl)phenyl]benzoxazol-5-yloxy}propyl)piperazinyl]-N-(2,6-dimethylphenyl)acetamide] | 13 µM
Cc1nc2cc(OC[C@H](O)CN3CCN(CC(=O)Nc4c(C)cccc4C)C[C@@H]3C)ccc2s1 [2-{4-[(2R)-2-hydroxy-3-(2-methylbenzothiazol-5-yloxy)propyl](3S)-3-methylpiperazinyl}-N-(2,6-dimethylphenyl)acetamide] | 5 µM
Cc1nc2cc(OC[C@H](O)CN3CCN(CC(=O)Nc4c(C)cccc4C)CC3)ccc2s1 [2-{4-[(2R)-2-hydroxy-3-(2-methylbenzothiazol-5-yloxy)propyl]piperazinyl}-N-(2,6-dimethylphenyl)acetamide] | 4 µM
Cc1nc2cc(OC[C@@H](O)CN3CCN(CC(=O)Nc4c(C)cccc4C)CC3)ccc2s1 [2-{4-[(2S)-2-hydroxy-3-(2-methylbenzothiazol-5-yloxy)propyl]piperazinyl}-N-(2,6-dimethylphenyl)acetamide] | 8 µM

Continued, values first:

IC50 | Compound
0.45 µM | 2-{4-[(2R)-2-hydroxy-3-(2-methylbenzothiazol-5-yloxy)propyl]-3,3-dimethylpiperazinyl}-N-(2,6-dimethylphenyl)acetamide
0.39 µM | 2-{4-[(2S)-2-hydroxy-3-(2-methylbenzothiazol-5-yloxy)propyl]piperazinyl}-N-(3-phenoxyphenyl)acetamide
1.7 µM | 2-{4-[(2S)-2-hydroxy-3-(2-methylbenzothiazol-5-yloxy)propyl]piperazinyl}-N-(4-methylphenyl)acetamide
0.46 µM | 2-{4-[(2S)-2-hydroxy-3-(2-methylbenzothiazol-5-yloxy)propyl]piperazinyl}-N-(4-phenylphenyl)acetamide
2 µM | 2-{4-[(2S)-2-hydroxy-3-(2-methylbenzothiazol-5-yloxy)propyl]piperazinyl}-N-[4-(4-chlorophenoxy)phenyl]acetamide
7.6 µM | 2-{4-[(2S)-2-hydroxy-3-(2-methylbenzothiazol-5-yloxy)propyl]piperazinyl}-N-[4-(trifluoromethyl)phenyl]acetamide
0.33 µM | 2-{4-[(2S)-2-hydroxy-3-(2-methylbenzothiazol--yloxy)propyl]piperazinyl}-N-(4-phenoxyphenyl)acetamide
26 µM | 2-{4-[(2S)-2-hydroxy-3-(2-phenylbenzoxazol-5-yloxy)propyl]piperazinyl}-N-(3-phenylphenyl)acetamide
11.3 µM | 2-{4-[(2S)-2-hydroxy-3-(2-phenylbenzoxazol-5-yloxy)propyl]piperazinyl}-N-(4-phenoxyphenyl)acetamide
6.5 µM | 2-{4-[(2S)-3-(2-cyclohexylbenzothiazol-5-yloxy)-2-hydroxypropyl]piperazinyl}-N-(2,6-dimethylphenyl)acetamide
0.41 µM | 2-{(3S)-4-[(2S)-2-hydroxy-3-(2-methylbenzothiazol-5-yloxy)propyl]-3-methylpiperazinyl}-N-(4-cyanophenyl)acetamide
0.18 µM | Cc1nc2cc(OC[C@@H](O)CN3CCN(CC(=O)Nc4cccc(-c5ccccc5)c4)CC3)ccc2s1 [2-{4-[(2S)-2-hydroxy-3-(2-methylbenzothiazol-5-yloxy)propyl]piperazinyl}-N-(3-phenylphenyl)acetamide]
10 µM | Cc1nc2cc(OC[C@H](O)CN3CCN(CC(=O)Nc4c(C)cccc4C)C[C@H]3C)ccc2s1 [2-{(3R)-4-[(2R)-2-hydroxy-3-(2-methylbenzothiazol-5-yloxy)propyl]-3-methylpiperazinyl}-N-(2,6-dimethylphenyl)acetamide]
2 µM | Cc1nc2cc(OC[C@@H](O)CN3CCN(CC(=O)Nc4c(C)cccc4C)C[C@H]3C)ccc2s1 [2-{(3R)-4-[(2S)-2-hydroxy-3-(2-methylbenzothiazol-5-yloxy)propyl]-3-methylpiperazinyl}-N-(2,6-dimethylphenyl)acetamide]
0.2 µM | Cc1nc2cc(OC[C@@H](O)CN3CCN(CC(=O)Nc4c(C)cccc4C)C[C@@H]3C)ccc2s1 [2-{(3S)-4-[(2S)-2-hydroxy-3-(2-methylbenzothiazol-5-yloxy)propyl]-3-methylpiperazinyl}-N-(2,6-dimethylphenyl)acetamide]
